According to patent publication US20190345199A1, “LIPOLANTHIPEPTIDES AND THEIR USES AS ANTIMICROBIAL AGENTS” (DEINOVE, priority 2017, published 2019):
≈ marks a conversion by molar mass, not a printed value. Like-named read-outs stand apart in the source and are kept apart here.

How the values were obtained:
Type in all cases: cell-based
Candida glabrata = experiment: MIC, extended antimicrobial activities (fungi); settings: Nakaseomyces glabratus; Candida glabrata DSMZ6425
Bacillus subtilis = experiment: MIC, CLSI dilution antibacterial susceptibility test; settings: Bacillus subtilis ATCC6633
Procedure: (§1) The measures of activities were conducted on compound NOC1 from Nocardia terpenica following the protocol recommended by the Clinical and Laboratory Standards Institute (CLSI)—Clinical and Laboratory Standards Institute (CLSI, formerly NCCLS): Methods for Dilution Antibacterial Susceptibility Tests for Bacteria That Grow Aerobically; Approved Standard—Tenth Edition (2015). Clinical and Laboratory Standards Institute Document M07-A10.

Enterococcus faecalis = experiment: as above
Procedure: as §1

Candida krusei = experiment: MIC, extended antimicrobial activities (fungi); settings: Pichia kudriavzevii; Candida krusei DSMZ6128
Candida albicans = experiment: MIC, extended antimicrobial activities (fungi); settings: Candida albicans ATCC10231
Staphylococcus aureus = experiment: MIC, CLSI dilution antibacterial susceptibility test; settings: read-out: Minimal Inhibitory Concentration (MIC)
Procedure: as §1
(§2) The measures of activities were conducted on compounds A, B and C, following the protocol recommended by the Clinical and Laboratory Standards Institute (CLSI)—Clinical and Laboratory Standards Institute (CLSI, formerly NCCLS):
(§3) Methods for Dilution Antibacterial Susceptibility Tests for Bacteria That Grow Aerobically; Approved Standard—Tenth Edition (2015). Clinical and Laboratory Standards Institute Document M07-A10.

Enterococcus faecium = experiment: as above
Procedure: as §1, §2, §3

Cryptococcus neoformans = experiment: MIC, extended antimicrobial activities (fungi); settings: Cryptococcus neoformans DSMZ6972
Candida parapsilosis = experiment: MIC, extended antimicrobial activities (fungi); settings: Lodderomyces parapsilosis; Candida parapsilosis DSMZ5784
Procedure: as §1

Candida tropicalis = experiment: MIC, extended antimicrobial activities (fungi); settings: Candida tropicalis DSMZ11953
Procedure: as §1

## CCC(C)C1NC(=O)C(NC(=O)C(C)NC(=O)/C=C/C=C/CC/C=C/CCCCN/C(=N/C)NC)CC2(CS/C=C\NC(=O)CNC(=O)C(CC(N)=O)NC2=O)NC(=O)C(CO)NC1=O (stereo not shown) [NOC1]
Candida glabrata
  MIC: 12 µg/mL (≈ 12.9 µM)
Bacillus subtilis
  MIC: 2 µg/mL (≈ 2.15 µM)
Enterococcus faecalis; Enterococcus faecalis ATCC29212, vancomycin sensitive
  MIC: 160 µg/mL (≈ 172 µM)
Enterococcus faecalis; Enterococcus faecalis ATCC700802, vancomycin resistant (gene vanB)
  MIC: 16 µg/mL (≈ 17.2 µM)
Candida krusei
  MIC: 12 µg/mL (≈ 12.9 µM)
Candida albicans
  MIC: 3 µg/mL (≈ 3.22 µM)
Staphylococcus aureus; S. aureus ATTC 1683 (ATCC1683), methicillin resistant
  MIC: 16 µg/mL (≈ 17.2 µM)
Staphylococcus aureus; S. aureus ATTC 13709 (ATCC13709), fully susceptible / methicillin sensitive
  MIC: 2 µg/mL (≈ 2.15 µM)
Staphylococcus aureus; S. aureus ATTC 25923 (ATCC25923), methicillin sensitive
  MIC: 2 µg/mL (≈ 2.15 µM)
Staphylococcus aureus; S. aureus USA300, methicillin resistant
  MIC: 60 µg/mL (≈ 64.4 µM)
Enterococcus faecium; Enterococcus faecium ATCC19434, vancomycin sensitive
  MIC: 8 µg/mL (≈ 8.59 µM)
Enterococcus faecium; Enterococcus faecium ATCC51559, vancomycin resistant (gene vanA)
  MIC: 16 µg/mL (≈ 17.2 µM)
Enterococcus faecium; Enterococcus faecium ATCC51858, vancomycin resistant (gene vanB)
  MIC: 16 µg/mL (≈ 17.2 µM)
Cryptococcus neoformans
  MIC: 24 µg/mL (≈ 25.8 µM)
Candida parapsilosis
  MIC: 24 µg/mL (≈ 25.8 µM)
Candida tropicalis
  MIC: 6 µg/mL (≈ 6.44 µM)
